Converted amounts (≈) assume the structure as drawn.
What was measured:
[1] = Volume of distribution at steady state in beagle dog at 1 mg/kg, iv by LC-MS/MS analysis; format: ADME, organism-based, Canis lupus familiaris; parameters: dose 1 mg/kg, route intravenous; conditions: in vivo
[2] = Clearance in Sprague-Dawley rat at 1 mg/kg, iv by LC-MS/MS analysis; format: ADME, organism-based; parameters: dose 1 mg/kg, route intravenous; conditions: in vivo
[3] = Volume of distribution at steady state in BALB/c mouse at 1 mg/kg, iv by LC-MS/MS analysis; format: ADME, organism-based; parameters: dose 1 mg/kg, route intravenous; conditions: in vivo, read-out: Vdss
[4] = Oral bioavailability in beagle dog at 5 mg/kg by LC-MS/MS analysis; format: ADME, organism-based, Canis lupus familiaris; conditions: in vivo
[5] = AUC in Sprague-Dawley rat at 1 mg/kg, iv by LC-MS/MS analysis; format: ADME, organism-based; parameters: dose 1 mg/kg, route intravenous; conditions: plasma
[6] = target: Receptor-type tyrosine-protein kinase FLT3 (Homo sapiens) (UniProt P36888); test: Inhibition of FLT3 (unknown origin) at 0.1 uM
[7] = Apparent permeability across MDCK cells; format: ADME, cell-based, Canis lupus familiaris; conditions: dog
[8] = Cmax in BALB/c mouse at 50 mg/kg, po by LC-MS/MS analysis; format: ADME, organism-based; parameters: dose 50 mg/kg, route oral; conditions: in vivo
[9] = Half life in beagle dog at 1 mg/kg, iv by LC-MS/MS analysis; format: ADME, organism-based, Canis lupus familiaris; parameters: dose 1 mg/kg, route intravenous; conditions: in vivo
[10] = Clearance in BALB/c mouse at 1 mg/kg, iv by LC-MS/MS analysis; format: ADME, organism-based; parameters: dose 1 mg/kg, route intravenous; conditions: in vivo
[11] = Oral bioavailability in BALB/c mouse at 50 mg/kg by LC-MS/MS analysis; format: ADME, organism-based; conditions: in vivo
[12] = Plasma protein binding in human; format: ADME, cell-free; conditions: read-out: PPB (converted)
[13] = Half life in BALB/c mouse at 1 mg/kg, iv by LC-MS/MS analysis; format: ADME, organism-based; parameters: dose 1 mg/kg, route intravenous; conditions: in vivo
[14] = system: T1, Receptor-type tyrosine-protein kinase FLT3 (Homo sapiens), P36888 [D835Y]; test: Inhibition of FLT3 D835Y mutant (unknown origin) at 0.1 uM
T1 sequence (whole entry): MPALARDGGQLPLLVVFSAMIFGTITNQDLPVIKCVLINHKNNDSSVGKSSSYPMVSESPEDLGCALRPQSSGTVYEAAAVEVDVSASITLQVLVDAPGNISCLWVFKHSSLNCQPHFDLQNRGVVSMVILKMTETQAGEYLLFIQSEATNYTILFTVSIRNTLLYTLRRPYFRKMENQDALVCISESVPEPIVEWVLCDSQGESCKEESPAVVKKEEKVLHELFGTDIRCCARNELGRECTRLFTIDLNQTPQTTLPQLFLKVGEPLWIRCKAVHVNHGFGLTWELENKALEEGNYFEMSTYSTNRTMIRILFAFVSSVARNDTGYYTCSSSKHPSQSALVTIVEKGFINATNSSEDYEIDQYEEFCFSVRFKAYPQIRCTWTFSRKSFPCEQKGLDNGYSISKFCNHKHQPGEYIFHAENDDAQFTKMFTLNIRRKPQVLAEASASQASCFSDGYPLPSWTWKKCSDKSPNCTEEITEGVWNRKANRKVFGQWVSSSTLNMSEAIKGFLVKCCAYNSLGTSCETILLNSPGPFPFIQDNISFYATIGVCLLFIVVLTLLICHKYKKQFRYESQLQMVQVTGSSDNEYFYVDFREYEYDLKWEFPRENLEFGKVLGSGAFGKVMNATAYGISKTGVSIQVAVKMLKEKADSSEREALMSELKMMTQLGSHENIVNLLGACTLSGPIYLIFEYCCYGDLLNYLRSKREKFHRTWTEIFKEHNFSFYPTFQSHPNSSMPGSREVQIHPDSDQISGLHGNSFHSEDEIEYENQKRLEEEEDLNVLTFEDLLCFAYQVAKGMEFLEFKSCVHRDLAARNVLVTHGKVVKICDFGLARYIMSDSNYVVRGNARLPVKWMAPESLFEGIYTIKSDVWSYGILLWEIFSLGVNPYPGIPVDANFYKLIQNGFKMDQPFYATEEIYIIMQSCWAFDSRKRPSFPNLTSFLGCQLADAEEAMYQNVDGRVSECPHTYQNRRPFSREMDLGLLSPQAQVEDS

[15] = Cmax in beagle dog at 5 mg/kg, po by LC-MS/MS analysis; format: ADME, organism-based, Canis lupus familiaris; parameters: dose 5 mg/kg, route oral; conditions: in vivo
[16] = AUC in beagle dog at 5 mg/kg, po by LC-MS/MS analysis; format: ADME, organism-based, Canis lupus familiaris; parameters: dose 5 mg/kg, route oral; conditions: plasma
[17] = Oral bioavailability in Sprague-Dawley rat at 5 mg/kg by LC-MS/MS analysis; format: ADME, organism-based; conditions: in vivo
[18] = AUC in beagle dog at 1 mg/kg, iv by LC-MS/MS analysis; format: ADME, organism-based, Canis lupus familiaris; parameters: dose 1 mg/kg, route intravenous; conditions: plasma
[19] = Volume of distribution at steady state in Sprague-Dawley rat at 1 mg/kg, iv by LC-MS/MS analysis; format: ADME, organism-based; parameters: dose 1 mg/kg, route intravenous; conditions: in vivo, read-out: Vdss
[20] = target: High affinity nerve growth factor receptor (Homo sapiens) (UniProt P04629); test: Inhibition of TRKA (unknown origin) at 0.1 uM
physchem [21] = conditions: 1-octanol/phosphate buffer, pH 7.4, logD
[22] = target: Dual specificity protein kinase CLK2 (Homo sapiens) (UniProt P49760); test: Inhibition of CLK2 (unknown origin) at 0.1 uM
[23] = Cmax in Sprague-Dawley rat at 5 mg/kg, po by LC-MS/MS analysis; format: ADME, organism-based; parameters: dose 5 mg/kg, route oral; conditions: in vivo
[24] = target: BDNF/NT-3 growth factors receptor (Homo sapiens) (UniProt Q16620); test: Inhibition of TRKB (unknown origin) at 0.1 uM
[25] = AUC in BALB/c mouse at 50 mg/kg, po by LC-MS/MS analysis; format: ADME, organism-based; parameters: dose 50 mg/kg, route oral; conditions: plasma
[26] = AUC in Sprague-Dawley rat at 5 mg/kg, po by LC-MS/MS analysis; format: ADME, organism-based; parameters: dose 5 mg/kg, route oral; conditions: plasma
[27] = target: NT-3 growth factor receptor (Homo sapiens) (UniProt Q16288); test: Inhibition of TRKC (unknown origin) at 0.1 uM
[28] = AUC in BALB/c mouse at 1 mg/kg, iv by LC-MS/MS analysis; format: ADME, organism-based; parameters: dose 1 mg/kg, route intravenous; conditions: plasma
[29] = Half life in Sprague-Dawley rat at 1 mg/kg, iv by LC-MS/MS analysis; format: ADME, organism-based; parameters: dose 1 mg/kg, route intravenous; conditions: in vivo
[30] = Clearance in beagle dog at 1 mg/kg, iv by LC-MS/MS analysis; format: ADME, organism-based, Canis lupus familiaris; parameters: dose 1 mg/kg, route intravenous; conditions: in vivo
physchem [31] = conditions: PBS buffer, pH 7.4, Kinetic_solubility

Chain of BDNF/NT-3 growth factors receptor (Homo sapiens) (Q16620 32-822 limits assumed): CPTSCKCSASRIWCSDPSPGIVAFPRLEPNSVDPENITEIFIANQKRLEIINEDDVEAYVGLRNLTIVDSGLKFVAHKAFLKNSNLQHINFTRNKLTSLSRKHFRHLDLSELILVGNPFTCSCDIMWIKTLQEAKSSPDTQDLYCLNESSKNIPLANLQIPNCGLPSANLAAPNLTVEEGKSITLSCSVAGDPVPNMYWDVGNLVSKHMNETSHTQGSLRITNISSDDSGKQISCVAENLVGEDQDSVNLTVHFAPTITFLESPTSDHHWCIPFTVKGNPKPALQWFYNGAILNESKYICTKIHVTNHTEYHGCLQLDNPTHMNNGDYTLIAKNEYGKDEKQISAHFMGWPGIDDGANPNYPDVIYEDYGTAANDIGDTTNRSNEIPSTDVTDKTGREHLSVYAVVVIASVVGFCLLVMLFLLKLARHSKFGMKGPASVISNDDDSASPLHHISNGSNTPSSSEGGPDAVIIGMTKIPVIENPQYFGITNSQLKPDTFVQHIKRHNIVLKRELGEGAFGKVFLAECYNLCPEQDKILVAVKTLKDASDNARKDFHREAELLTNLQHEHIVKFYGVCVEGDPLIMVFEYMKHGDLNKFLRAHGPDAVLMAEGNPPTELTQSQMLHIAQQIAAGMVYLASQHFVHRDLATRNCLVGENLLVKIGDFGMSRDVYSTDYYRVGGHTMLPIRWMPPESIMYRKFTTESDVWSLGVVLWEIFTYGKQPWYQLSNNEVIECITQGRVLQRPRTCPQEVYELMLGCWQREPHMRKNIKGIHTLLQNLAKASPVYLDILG
Chain of Dual specificity protein kinase CLK2 (Homo sapiens) (P49760 whole entry, looked up): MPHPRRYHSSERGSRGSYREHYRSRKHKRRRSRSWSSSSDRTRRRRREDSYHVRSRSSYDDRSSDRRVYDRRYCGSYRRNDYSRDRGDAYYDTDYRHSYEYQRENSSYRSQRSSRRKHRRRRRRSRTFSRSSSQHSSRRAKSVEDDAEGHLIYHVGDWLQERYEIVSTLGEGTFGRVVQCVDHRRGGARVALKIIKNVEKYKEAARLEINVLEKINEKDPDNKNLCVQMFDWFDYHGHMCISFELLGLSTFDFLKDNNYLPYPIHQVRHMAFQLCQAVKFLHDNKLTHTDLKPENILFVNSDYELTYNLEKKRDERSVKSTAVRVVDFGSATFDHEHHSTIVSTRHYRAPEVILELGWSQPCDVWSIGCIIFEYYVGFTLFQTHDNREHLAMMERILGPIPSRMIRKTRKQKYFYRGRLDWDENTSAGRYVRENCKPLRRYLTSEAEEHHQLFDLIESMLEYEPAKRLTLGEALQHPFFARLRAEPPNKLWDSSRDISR
Chain of NT-3 growth factor receptor (Homo sapiens) (Q16288 32-839 limits assumed): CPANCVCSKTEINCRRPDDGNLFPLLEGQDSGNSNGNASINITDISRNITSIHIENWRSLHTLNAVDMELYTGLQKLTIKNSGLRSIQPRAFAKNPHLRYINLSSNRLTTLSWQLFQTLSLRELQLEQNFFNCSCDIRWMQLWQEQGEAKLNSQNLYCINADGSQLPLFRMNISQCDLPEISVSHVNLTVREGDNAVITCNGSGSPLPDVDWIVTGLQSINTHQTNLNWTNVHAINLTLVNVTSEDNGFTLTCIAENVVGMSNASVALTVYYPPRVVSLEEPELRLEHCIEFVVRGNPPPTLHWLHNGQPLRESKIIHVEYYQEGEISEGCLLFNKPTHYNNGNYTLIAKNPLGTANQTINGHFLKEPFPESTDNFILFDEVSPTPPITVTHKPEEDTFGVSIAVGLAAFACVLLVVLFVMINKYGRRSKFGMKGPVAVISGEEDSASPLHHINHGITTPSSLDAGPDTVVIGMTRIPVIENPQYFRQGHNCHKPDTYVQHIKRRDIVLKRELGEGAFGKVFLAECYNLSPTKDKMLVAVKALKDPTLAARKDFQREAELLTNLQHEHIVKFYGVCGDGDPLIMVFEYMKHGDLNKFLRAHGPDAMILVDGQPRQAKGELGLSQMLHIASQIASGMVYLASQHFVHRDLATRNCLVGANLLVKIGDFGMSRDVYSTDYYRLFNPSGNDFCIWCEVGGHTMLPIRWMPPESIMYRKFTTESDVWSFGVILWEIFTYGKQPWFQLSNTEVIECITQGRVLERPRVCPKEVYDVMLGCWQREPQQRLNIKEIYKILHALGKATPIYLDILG
Chain of High affinity nerve growth factor receptor (Homo sapiens) (P04629 33-796 limits assumed): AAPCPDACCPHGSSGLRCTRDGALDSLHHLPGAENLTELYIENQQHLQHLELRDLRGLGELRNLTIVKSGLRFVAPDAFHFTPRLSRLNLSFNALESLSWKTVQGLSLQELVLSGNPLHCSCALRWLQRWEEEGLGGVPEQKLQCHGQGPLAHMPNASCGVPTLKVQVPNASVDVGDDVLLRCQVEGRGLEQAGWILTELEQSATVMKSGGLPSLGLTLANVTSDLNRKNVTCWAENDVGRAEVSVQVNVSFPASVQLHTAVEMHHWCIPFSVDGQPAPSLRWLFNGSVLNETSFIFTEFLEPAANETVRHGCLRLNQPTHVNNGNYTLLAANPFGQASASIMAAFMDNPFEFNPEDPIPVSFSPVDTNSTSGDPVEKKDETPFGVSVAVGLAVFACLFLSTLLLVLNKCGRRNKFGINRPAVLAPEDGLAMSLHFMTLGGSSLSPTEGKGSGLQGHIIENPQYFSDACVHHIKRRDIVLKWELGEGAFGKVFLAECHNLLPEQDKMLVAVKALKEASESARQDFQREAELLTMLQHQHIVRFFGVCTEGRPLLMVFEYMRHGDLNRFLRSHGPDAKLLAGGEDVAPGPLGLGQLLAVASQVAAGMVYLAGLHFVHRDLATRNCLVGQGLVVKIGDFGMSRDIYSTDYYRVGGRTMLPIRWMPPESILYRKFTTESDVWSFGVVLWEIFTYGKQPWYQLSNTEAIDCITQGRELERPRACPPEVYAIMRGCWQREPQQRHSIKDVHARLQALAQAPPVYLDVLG

Structure (SMILES): CN(C)CC[C@@H](c1ccccc1)n1cc(NC(=O)c2n[nH]c3c2CCC(C)(C)C3)cn1
- Vd [1]: 6.7 L/kg
- clearance [2]: 70 mL/min/kg
- Vd [3]: 10 L/kg
- bioavailability [4]: 100%
- AUC [5]: 0.6 µM·h
- inhibition [6]: 76%
- Papp [7]: 4.6 ×10⁻⁶ cm/s
- Cmax [8]: 3.8 µM
- half-life [9]: 324 min
- clearance [10]: 40 mL/min/kg
- bioavailability [11]: 36%
- fraction unbound [12]: 0.07
- half-life [13]: 174 min
- inhibition [14]: 75%
- Cmax [15]: 900 nM
- AUC [16]: 10 µM·h
- bioavailability [17]: 40%
- AUC [18]: 1.9 µM·h
- Vd [19]: 14 L/kg
- inhibition [20]: 80%
- logD at 20 min, 10000 µM (physchem [21]): 2
- inhibition [22]: 93%
- Cmax [23]: 200 nM
- inhibition [24]: 91%
- AUC [25]: 27 µM·h
- AUC [26]: 1.1 µM·h
- inhibition [27]: 88%
- AUC [28]: 1.5 µM·h
- half-life [29]: 180 min
- clearance [30]: 21 mL/min/kg
- solubility kinetic at 24 h, 10000 µM (physchem [31]): 68 µM (≈ 28.6 µg/mL)

— ChEMBL document CHEMBL3297697, “Property- and structure-guided discovery of a tetrahydroindazole series of interleukin-2 inducible T-cell kinase inhibitors” (J Med Chem, 2014)
